Assays:
Test in all cases: relative viability (nuclei count vs DMSO), 5 days (fraction); higher = more cells survive
[1] = compound: OCc1c[nH]c2ccccc12 [Indole-3-carbinol] + C[C@]1(O)C[C@@H](c2nc(-c3ccc4ccc(-c5ccccc5)nc4c3)c3c(N)nccn32)C1 [Linsitinib] (partner 1 µM)
How it was run: (§1)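 Five library-drug doses in √10 steps were combined with a fixed anchor-drug dose, or a single drug was given alone, by pin tool to lung cancer cell lines in 1536-well plates the day after seeding. Nuclei were stained and counted after 5 days. Relative viability is the nuclei count in treated wells over that in vehicle wells, taken as the median of duplicate plates.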

[2] = compound: OCc1c[nH]c2ccccc12 [Indole-3-carbinol] + COc1cc2c(Oc3ccc(NC(=O)C4(C(=O)Nc5ccc(F)cc5)CC4)cc3F)ccnc2cc1OCCCN1CCOCC1 [Foretinib] (partner 0.25 µM)
How it was run: as §1

[3] = compound: OCc1c[nH]c2ccccc12 [Indole-3-carbinol] + C[C@@H](Oc1cc(-c2cnn(C3CCNCC3)c2)cnc1N)c1c(Cl)ccc(F)c1Cl [Crizotinib] (partner 1 µM)
How it was run: as §1

[4] = compound: OCc1c[nH]c2ccccc12 [Indole-3-carbinol] + N=C(N)NC(=N)NCCc1ccccc1 [Phenformin] (partner 250 µM)
How it was run: as §1

[5] = compound: OCc1c[nH]c2ccccc12 [Indole-3-carbinol]
How it was run: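 In 1536-well plates, lung cancer cell lines rested overnight at 37 °C before five library-drug doses (not always all listed), √10 apart, were pinned onto vehicle-anchored plates. Nuclei were counted with MetaXpress from 4× Hoechst images taken after 5 days without medium change. Viability compares treated-well with vehicle-well nuclei as a median over plates, and plates needed control CV below 25% plus at least one doubling to pass.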

Cell Line	relative viability ([1]; first compound 0.253 µM)	relative viability ([1]; first compound 0.8 µM)	relative viability ([1]; first compound 2.53 µM)	relative viability ([1]; first compound 8 µM)	relative viability ([2]; first compound 0.253 µM)	relative viability ([2]; first compound 2.53 µM)	relative viability ([2]; first compound 8 µM)	relative viability ([3]; first compound 0.253 µM)	relative viability ([3]; first compound 0.8 µM)	relative viability ([3]; first compound 2.53 µM)	relative viability ([3]; first compound 8 µM)	relative viability ([4]; first compound 0.253 µM)	relative viability ([4]; first compound 2.53 µM)	relative viability ([4]; first compound 8 µM)	relative viability ([5]; 0.253 µM)	relative viability ([5]; 0.8 µM)	relative viability ([5]; 2.53 µM)	relative viability ([5]; 8 µM)	relative viability ([2]; first compound 0.8 µM)	relative viability ([4]; first compound 0.8 µM)
NCI-H647	1.08	1.44	1.13	1.04	1.22	1.22	1.01	1.23	1.13	1.04	1.01	0.637	0.569	0.446	1.06	0.703	1.1	0.948	–	–
NCI-H2009	1.24	1.26	1.17	1.13	1.18	1.21	1.17	0.993	1.07	0.953	1	0.512	0.506	0.465	1.05	1.03	1.01	0.951	1.13	0.515
EPLC-272H	1.38	1.28	1.24	1.11	0.67	0.724	0.709	0.997	1.14	0.947	1.01	0.347	0.285	0.258	1.01	1.15	0.9	0.906	0.72	0.292
NCI-H520	1.04	0.872	1.24	0.854	0.863	0.705	0.62	0.826	0.948	1.02	0.754	0.58	0.622	0.585	0.925	0.848	1.05	0.902	0.774	0.549
NCI-H2405	0.945	0.805	0.903	0.89	1.07	1.04	0.997	0.875	0.825	0.901	0.78	0.426	0.391	0.44	1.06	1.01	1.06	1.03	1.07	0.376
NCI-H2085	0.828	0.897	0.982	0.779	0.781	0.879	0.865	0.897	0.738	0.832	0.786	0.684	0.787	0.624	1.01	1.03	1.03	0.949	1.11	0.85
NCI-H322M	0.9	0.899	0.974	0.839	0.827	0.876	0.829	1.09	0.989	1	0.892	0.685	0.746	0.761	0.84	0.973	0.859	0.866	0.998	0.764
NCI-H1944	1.27	1.1	1.17	1.17	0.876	0.846	0.77	1.06	0.951	1.12	0.955	0.202	0.202	0.199	0.971	0.793	0.955	0.962	0.775	0.195
LC-2-ad	0.827	0.791	0.806	0.783	0.921	1.05	0.889	0.514	0.439	0.484	0.42	0.597	0.638	0.588	1.04	0.951	0.971	1.01	0.852	0.525
NCI-H358	0.697	0.7	0.734	0.709	0.805	0.73	0.73	0.64	0.698	0.735	0.461	0.383	0.345	0.325	0.947	0.916	0.917	0.94	0.69	0.33
NCI-H2170	–	–	–	–	1.04	0.815	0.943	1.26	1.3	1.15	1.03	0.451	0.432	0.418	0.999	1	0.929	0.955	0.861	0.385
A-427	1.1	1.06	1.09	1.08	0.941	1.01	0.94	0.888	0.847	1.18	0.828	0.35	0.339	0.298	0.96	0.95	0.982	0.97	1.14	0.351
NCI-H1666	0.81	0.867	0.84	0.808	0.932	1.01	0.94	1.11	0.994	1.42	0.892	0.592	0.582	0.558	0.998	1.04	0.961	0.998	1	0.515
LOU-NH91	1.01	0.899	0.937	0.943	0.927	0.963	0.924	0.771	0.61	0.71	0.714	0.783	0.725	0.699	0.957	0.933	0.95	1.04	0.964	0.708
ABC-1	0.931	1.04	0.82	0.706	0.903	1.13	1	0.973	0.925	1.39	1.33	0.254	0.265	0.259	0.816	0.995	1.12	0.955	0.961	0.238
NCI-H1651	0.873	1.11	1.06	0.895	0.828	0.857	0.737	0.766	0.841	0.917	0.886	0.287	0.315	0.424	0.994	0.97	1.05	0.945	0.853	0.349

Source: the supplement of paper PMC10307832
